Laboratory results from patent publication US20040166092A1, “Use of viral vectors and charged molecules for gene therapy” (priority 1999, published 2004).

Key:
CT-26 cells = experiment: CT-26 morphology and cell growth in culture; type: cell-based; conditions: 72 hours
Method: To better understand the in vivo effects of dextran sulfate or dextran in combination with HSV, the effects of dextran sulfate on cell morphology and cell proliferation were evaluated in a cell culture model. CT-26 cells were treated with 100 μg/ml of dextran sulfate or were left untreated. After 48 hours, cell numbers and morphology were examined (FIG. 15). […] In the presence of dextran sulfate, CT-26 cells appeared more evenly spread across tissue culture dishes (panel B) as compared to the “clumped” appearance of CT-26 cells in the absence of dextran sulfate (panel A).
The effect of dextran sulfate, acyclovir, or a combination of both dextran and acyclovir were also examined for their effects on cell growth in vitro. Cultured CT-26 cells were administered dextran sulfate (100 μg/ml), acyclovir (2 mg/ml), both dextran sulfate and acyclovir, or were left untreated (control). CT-26 cells were counted at various time points following addition each formulation.

CT-26 flank tumors = experiment: CT-26 flank tumor model; type: in vivo, mouse; conditions: acyclovir 2 mg/ml with dextran sulfate 100 μg/ml and 1×10^7 pfu NV1020
Method: Different modes of delivery were also examined to determine the efficacy of systemic delivery of HSV on tumor growth. Flank tumors were established in mice by subcutaneous injection of CT-26 cancer cells. The mice were then administered 1×10^7 pfu of NV1020 either intratumorally or systemically by tail vein. Tumor growth rates were then assessed by measuring the tumor volume biweekly (FIG. 8).
Mice were anesthetized using ketamine (70 mg/kg) and xylazine (10 mg/kg). CT-26 cells (5×10^4 cells resuspended in 100 μl of PBS) were injected subcutaneously into the right flank of each mouse, using a 26-gauge needle. The cells formed a tumor, which was allowed to grow to a size of approximately 100 to 150 mm^3. Injections of the desired therapy were then initiated. Tumor volumes were generally measured biweekly. The animals were sacrificed once the tumor volume reached 1500 mm^3.
Tail vein administration of the desired therapy was carried out using techniques commonly known in the art.

Nc1nc2c(ncn2COCCO)c(=O)[nH]1 [acyclovir]
growth of the cells (number of cells/ml) compared to untreated cells (CT-26 cells; acyclovir 2 mg/ml together with dextran sulfate 100 μg/ml): did not vary significantly
growth of the cells (number of cells/ml) compared to untreated cells (CT-26 cells; acyclovir 2 mg/ml): did not vary significantly
tumor growth (CT-26 flank tumors): reduced tumor growth
